Results on one compound are retold here after patent US20240181022A1, “AMURINS LYSINS, AND LYSIN-ANTIMICROBIAL PEPTIDE (AMP) CONSTRUCTS ACTIVE AGAINST GRAM-NEGATIVE BACTERIA” (priority 2021, published 2024).

In brackets after ≈: the same amount, converted by molar mass. A value given as a limit tells only on which side of the number the result lay.

The test system of one experiment is B. cenocepacia. The experiment is described as follows: Checkerboard synergy assay with meropenem against B. cenocepacia. The settings on record: for MIC (dual agent): GN370 + meropenem. It counts as cell-based, Burkholderia cenocepacia. The text has this: (§1) In some embodiments, the Chp peptides disclosed herein or active fragments thereof reduce the minimum inhibitory concentration (MIC) of an antibiotic in the presence and/or absence of human serum, pulmonary surfactant, and/or sputum, including human sputum and human sputum from a cystic fibrosis patient. Any known method to assess MIC may be used. In some embodiments, a checkerboard assay is used to determine the effect of a Chp peptide or active fragment thereof on antibiotic concentration. The checkerboard assay is based on a modification of the CLSI method for MIC determination by broth microdilution (See Clinical and Laboratory Standards Institute (CLSI), CLSI. 2015. Methods for Dilution Antimicrobial Susceptibility Tests for Bacteria That Grow Aerobically; Approved Standard-10th Edition. Clinical and Laboratory Standards Institute, Wayne, PA, which is herein incorporated by reference in its entirety and Ceri et al. 1999. J. Clin. Microbiol. 37: 1771-1776, which is also herein incorporated by reference in its entirety).
(§2) Checkerboards are constructed by first preparing columns of e.g., a 96-well polypropylene microtiter plate, wherein each well has the same amount of antibiotic diluted 2-fold along the horizontal axis. […] The Chp peptide or active fragment thereof and antibiotic dilutions are then combined, so that each column has a constant amount of antibiotic and doubling dilutions of Chp peptide, while each row has a constant amount of Chp peptide and doubling dilutions of antibiotic. Each well thus has a unique combination of Chp peptide and antibiotic. Bacteria are added to the drug combinations at concentrations of 1×10^5 GFU/ml in CAA, for example, with or without human serum or pulmonary surfactant. […] Summation fractional inhibitory concentrations (ΣFICs) are calculated for each drug and the minimum ΣFIC value (ΣFICmin) is used to determine the effect of the Chp peptide/antibiotic combination.
The synergy of GN370 with meropenem was evaluated against 3 different strains of P. aeruginosa and three different strains of B. cenocepacia.

The next experiment relates to P. aeruginosa. Briefly: Checkerboard synergy assay (FICI) with antibiotics against P. aeruginosa. The settings on record: for MIC (dual agent): GN370 + meropenem. The format is cell-based, Pseudomonas aeruginosa. A digest of the protocol: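 Checkerboard of 2-fold antibiotic dilutions crossed with GN370 (lysin peptide), bacteria at 1×10^5 CFU/ml in CAA, with or without human serum or pulmonary surfactant. ΣFICmin taken as FICI: ≤0.5 synergy, >0.5–≤1 additive, >1 indifferent.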

For another experiment, the system named is E. coli. The experiment is described as follows: Checkerboard synergy assay (FICI) against E. coli. The format is cell-based, Escherichia coli. The settings on record: E. coli ATCC 25922.
Source text: as §1, §2
GN370 was further tested in combination with up to seven additional antibiotics (in addition to meropenem) against a variety of bacterial strains, including P. aeruginosa, A. baumannii, E. coli, E. cloacae, and K. pneumoniae. GN370 and the subject antibiotics were tested in a checkerboard assay format, and FICI values were determined, wherein ≤0.5 indicates synergy, >0.5-≤1 indicates additive; and >1 indicates indifferent.

The test system of a further experiment is A. xylosoxidans. The format is cell-based, Achromobacter xylosoxidans. On the procedure: MIC values were determined using a modification of the standard broth microdilution reference method defined by the Clinical and Laboratory Standards Institute (CLSI), CLSL. 2015. Methods for Dilution Antimicrobial Susceptibility Tests for Bacteria That Grow Aerobically; Approved Standard-10th Edition. Clinical and Laboratory Standards Institute, Wayne, PA. The modification was based on the replacement of Mueller Hinton Broth with either CAA media (with and without NaCl) or CAA supplemented with 2.5% human serum. MIC is the minimum concentration of peptide sufficient to suppress at least 80% of the bacterial growth compared to control.
The MICs for were determined as described below using the broth microdilution method for meropenem, GN370, AM1, AM2, and AM3. The results are shown below in Tables 8-12.
The activity of GN370 and AM1 was evaluated against various bacterial isolates, including mucoid and α-hemolytic isolates of P. aeruginosa, MDR isolates, and carbapenem-resistant isolates.

Where [1] appears, read: P. aeruginosa (ATCC 27853, CFS 1766).

Usually MIC50 stands for the lowest concentration that inhibits either 50% of growth or 50% of the strains tested, depending on the study. By MIC90 is commonly meant the lowest concentration that inhibits either 90% of growth or 90% of the strains tested, depending on the study. With `C[C@@H](O)[C@H]1C(=O)N2C(C(=O)O)=C(S[C@@H]3CN[C@H](C(=O)N(C)C)C3)[C@H](C)[C@H]12` [meropenem, reference compound], the MIC (alone) with B. cenocepacia (B. cenocepacia (CFS 2135)) came to 32 µg/mL; in the experiment on B. cenocepacia (B. cenocepacia (CFS 2138)), 64 µg/mL; with B. cenocepacia (B. cenocepacia (CFS 2142)) it was 64 µg/mL; with P. aeruginosa (setting [1]) it was 8 µg/mL; in the experiment on P. aeruginosa (P. aeruginosa (CFS 2045)), 32 µg/mL; with P. aeruginosa (P. aeruginosa (CFS 2061)), 64 µg/mL. Moreover, the MIC (dual agent) in the experiment with B. cenocepacia (B. cenocepacia (CFS 2135)) turned out to be 32 µg/mL; with B. cenocepacia (B. cenocepacia (CFS 2138)) it was 64 µg/mL; in the experiment on B. cenocepacia (B. cenocepacia (CFS 2142)), 32 µg/mL; in the experiment on P. aeruginosa (setting [1]) it was 0.25 µg/mL; in the experiment with P. aeruginosa (P. aeruginosa (CFS 2045)), 4 µg/mL; in the experiment with P. aeruginosa (P. aeruginosa (CFS 2061)), 4 µg/mL. Further, the “FICI of the antibiotic with GN370” value with P. aeruginosa (P. aeruginosa ATCC 27853, checkerboard) worked out at 0.375; in the experiment with E. coli, 0.5. Further, in the experiment on P. aeruginosa (P. aeruginosa strain AR-769), the Antibiotic MIC (single agent) is 64 µg/mL. The “Antibiotic FIC” value in the experiment with P. aeruginosa (P. aeruginosa strain AR-769, in combination with GN370) is on record as 0.125. In the experiment on P. aeruginosa (P. aeruginosa strain AR-769, in combination with GN370, in µg/mL), the “Antibiotic MIC (combo)” value came to 8. Besides, in the experiment with A. xylosoxidans (A. xylosoxidans isolates), the MIC50 was determined as 4 µg/mL (≈ 10.4 µM). In the experiment on A. xylosoxidans (A. xylosoxidans isolates), this compound had an MIC90 above 32 µg/mL. In the experiment on A. xylosoxidans (A. xylosoxidans test organism of the sputum time-kill assay), the MIC entry is “Meropenem (MIC = 0.25)”.
